From patent publication US8685970B2, “Quinolines and related analogs as sirtuin modulators” (GlaxoSmithKline, LLC, priority 2008, dated 2014)

target: T1, SIRT1 (Homo sapiens, UniProt Q96EB6); assay: Mass spectrometry based SIRT1 deacetylation assay (activation); format: biochemical; details: 10 nM SIRT1, 0.5 μM peptide substrate, 120 μM βNAD+, 25 min at 25° C.
T1 sequence (Q96EB6 1-747): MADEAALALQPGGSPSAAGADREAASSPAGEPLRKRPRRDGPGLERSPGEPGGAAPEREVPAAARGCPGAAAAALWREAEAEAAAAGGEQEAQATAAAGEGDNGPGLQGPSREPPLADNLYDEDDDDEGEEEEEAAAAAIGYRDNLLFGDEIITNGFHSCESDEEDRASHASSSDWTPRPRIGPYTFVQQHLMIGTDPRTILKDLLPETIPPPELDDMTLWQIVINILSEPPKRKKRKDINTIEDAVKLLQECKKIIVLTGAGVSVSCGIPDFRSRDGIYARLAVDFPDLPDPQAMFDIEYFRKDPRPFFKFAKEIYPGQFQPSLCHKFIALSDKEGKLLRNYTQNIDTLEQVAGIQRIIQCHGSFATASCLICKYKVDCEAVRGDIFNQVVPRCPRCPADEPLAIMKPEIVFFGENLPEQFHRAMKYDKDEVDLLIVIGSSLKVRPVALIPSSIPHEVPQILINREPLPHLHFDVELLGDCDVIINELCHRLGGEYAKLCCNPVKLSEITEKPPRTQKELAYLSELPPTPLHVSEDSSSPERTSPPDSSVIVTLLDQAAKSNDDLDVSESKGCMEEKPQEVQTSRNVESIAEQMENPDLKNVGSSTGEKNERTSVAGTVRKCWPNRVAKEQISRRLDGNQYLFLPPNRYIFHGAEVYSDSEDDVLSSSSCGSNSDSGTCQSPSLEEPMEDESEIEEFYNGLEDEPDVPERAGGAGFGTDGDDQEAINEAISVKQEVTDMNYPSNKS
How it was run: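 Activation reported as EC1.5, the compound concentration producing 150% of DMSO-control deacetylation, plus maximum fold activation. Readout is mass-spectrometric ratio of deacetylated to acetylated p53-based peptide (0.5 μM) after 25 min, 25 °C, with 120 μM βNAD+ and 10 nM His-tagged human SIRT1, pH 8.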

Compound	% Fold Act. (percent maximum fold activation)	EC1.5 (concentration of test compound that results in 150% activation of SIRT1)
O=C(Nc1ccccc1)c1cccc2ccc(-c3cccc(C(F)(F)F)c3)nc12 [Compound 10]	A (Fold activation >200%)	B (EC1.5 1-25 uM)
O=C(Nc1cnccn1)c1cccc2ccc(-c3cccc(OC(F)(F)F)c3)nc12 [Compound 17]	A (Fold activation >200%)	A (EC1.5<1.0 uM)
O=C(Nc1ncnc2ccc(-c3cccc(OC(F)(F)F)c3)nc12)c1cccc(C(F)(F)F)c1 [Compound 211]		C (EC1.5>25 uM)
O=C(Nc1nccs1)c1cccc2cc(C(F)(F)F)c(-c3ccccc3)nc12 [Compound 192]		C (EC1.5>25 uM)
O=C(Nc1ccncc1)c1cccc2ccc(-c3cccc(N4CCOCC4)c3)nc12 [Compound 254]	A (Fold activation >200%)	A (EC1.5<1.0 uM)
O=C(Nc1ccccc1)c1cccc2ccc(-c3cccc(OC(F)(F)F)c3)nc12 [Compound 11]	B (Fold Activation <200%)	B (EC1.5 1-25 uM)
O=C(Nc1cccc2ccc(-c3cc(F)cc(C(F)(F)F)c3)nc12)c1ccncc1 [Compound 160]		C (EC1.5>25 uM)
O=C(Nc1cccc2ccc(-c3cccc(C(F)(F)F)c3)nc12)c1cnccn1 [Compound 4]	B (Fold Activation <200%)	A (EC1.5<1.0 uM)
O=C(Nc1nc(CN2CCCC2)cs1)c1cccc2ccc(-c3cccc(C(F)F)c3)nc12 [Compound 261]	A (Fold activation >200%)	A (EC1.5<1.0 uM)
Cc1cccc(NC(=O)c2cccc3ccc(-c4cccc(N5CCOCC5)c4)nc23)n1 [Compound 268]	A (Fold activation >200%)	A (EC1.5<1.0 uM)
O=C(Nc1nccs1)c1cccc2ncc(-c3cccc(C(F)(F)F)c3)nc12 [Compound 123]		C (EC1.5>25 uM)
FC(F)(F)Oc1cccc(-c2ccc3cccc(NCc4ccccn4)c3n2)c1 [Compound 65]		C (EC1.5>25 uM)
O=C(Nc1cccnc1Cl)c1cccc2ccc(-c3cccc(C(F)(F)F)c3)nc12 [Compound 57]	B (Fold Activation <200%)	B (EC1.5 1-25 uM)
Cc1cncc(-c2ccc3cccc(NC(=O)c4cscn4)c3n2)c1 [Compound 214]	A (Fold activation >200%)	A (EC1.5<1.0 uM)
O=C(Nc1cccc2ccc(-c3ccc(F)c(C(F)(F)F)c3)nc12)c1cscn1 [Compound 158]		C (EC1.5>25 uM)
O=C(Nc1cccnc1)c1cccc2ccc(-c3ccccc3C(F)(F)F)nc12 [Compound 86]	A (Fold activation >200%)	B (EC1.5 1-25 uM)
O=C(Nc1cccnc1)c1cc(F)cc2ccc(-c3cccc(C(F)(F)F)c3)nc12 [Compound 63]		C (EC1.5>25 uM)

Compound	% Fold Act. (percent maximum fold activation)	EC1.5 (concentration of test compound that results in 150% activation of SIRT1)
O=C(Nc1ccccn1)c1cccc2ncc(-c3cccc(OC(F)(F)F)c3)nc12 [Compound 127]		C (EC1.5>25 uM)
O=C(Nc1nncs1)c1cccc2ccc(-c3cccc(C(F)(F)F)c3)nc12 [Compound 28]	A (Fold activation >200%)	A (EC1.5<1.0 uM)
O=C(Nc1cccc2ccc(-c3cccc(C(F)(F)F)c3)nc12)c1cscn1 [Compound 5]	A (Fold activation >200%)	A (EC1.5<1.0 uM)
O=C(Nc1cccc2ccc(-c3ccc(N4CCOCC4)nc3)nc12)c1cscn1 [Compound 246]	A (Fold activation >200%)	B (EC1.5 1-25 uM)
Cc1cnc(NC(=O)c2cccc3ccc(-c4cccnc4)nc23)s1 [Compound 225]		C (EC1.5>25 uM)
O=C(Nc1ncnc2ccc(-c3cccc(C(F)(F)F)c3)nc12)c1cccnc1 [Compound 311]	A (Fold activation >200%)	B (EC1.5 1-25 uM)
O=C(N[C@H]1CCNC1)c1cccc2ccc(-c3cccc(C(F)(F)F)c3)nc12 [Compound 72]	B (Fold Activation <200%)	C (EC1.5>25 uM)
Cc1cc(-c2ccc3cccc(C(=O)Nc4nccs4)c3n2)no1 [Compound 69]		C (EC1.5>25 uM)
Cc1cncc(-c2ccc3cccc(C(=O)Nc4cccc(CN5CCOCC5)n4)c3n2)c1 [Compound 244]	A (Fold activation >200%)	A (EC1.5<1.0 uM)
O=C(Nc1ccncn1)c1cccc2ccc(-c3ccc(C(F)(F)F)cc3)nc12 [Compound 99]		C (EC1.5>25 uM)
O=C(Nc1cccc2ccc(-c3cccc(OC(F)(F)F)c3)nc12)c1cscn1 [Compound 7]	A (Fold activation >200%)	B (EC1.5 1-25 uM)
FC(F)(F)Oc1cccc(-c2ccc3cccc(NCC4CCCC4)c3n2)c1 [Compound 141]		C (EC1.5>25 uM)
O=C(Nc1ccccn1)c1cccc2ccc(-c3ccccc3C(F)(F)F)nc12 [Compound 85]	B (Fold Activation <200%)	B (EC1.5 1-25 uM)
O=C(Nc1cccc(OC2CCNCC2)c1)c1cccc2ccc(-c3cccc(C(F)(F)F)c3)nc12 [Compound 256]	A (Fold activation >200%)	A (EC1.5<1.0 uM)
O=C(Nc1ccccn1)Nc1cccc2ccc(-c3cccc(OC(F)(F)F)c3)nc12 [Compound 46]	B (Fold Activation <200%)	A (EC1.5<1.0 uM)
O=C(Nc1cccc2ccc(-c3cccc(OC(F)(F)F)c3)nc12)c1ccccc1F [Compound 20]		C (EC1.5>25 uM)
